Test results from the NIST ThermoML archive (doi:10.1021/je049671t).
± gives the expanded uncertainty stated by the source.

Test: xn = mol fraction of the nth substance listed
Details: Liquid, Vibrating tube method

CCCC [butane] + CCC
mass density (340 K, 4496.8 kPa, x2 = 0.5): 488.89 ± 0.35 kg/m3 | mass density (340 K, 4514.8 kPa, x2 = 0.25): 511.39 ± 0.34 kg/m3 | mass density (340 K, 4981.8 kPa, x2 = 0.25): 512.84 ± 0.35 kg/m3 | mass density (340 K, 4991.2 kPa, x2 = 0.75): 464.48 ± 0.34 kg/m3 | mass density (340 K, 5012.2 kPa, x2 = 0.5): 490.8 ± 0.35 kg/m3 | mass density (340 K, 5479.2 kPa, x2 = 0.25): 514.33 ± 0.36 kg/m3 | mass density (340 K, 5511.6 kPa, x2 = 0.5): 492.6 ± 0.36 kg/m3 | mass density (340 K, 5517 kPa, x2 = 0.75): 466.87 ± 0.35 kg/m3 | mass density (340 K, 5958.5 kPa, x2 = 0.25): 515.74 ± 0.36 kg/m3 | mass density (340 K, 5990.2 kPa, x2 = 0.75): 468.91 ± 0.36 kg/m3 | mass density (340 K, 6031.2 kPa, x2 = 0.5): 494.4 ± 0.37 kg/m3 | mass density (340 K, 6477.8 kPa, x2 = 0.25): 517.22 ± 0.37 kg/m3 | mass density (340 K, 6495 kPa, x2 = 0.75): 471.01 ± 0.36 kg/m3 | mass density (340 K, 6534.4 kPa, x2 = 0.5): 496.09 ± 0.38 kg/m3 | mass density (340 K, 6953.2 kPa, x2 = 0.75): 472.85 ± 0.37 kg/m3 | mass density (340 K, 6991.8 kPa, x2 = 0.25): 518.67 ± 0.38 kg/m3 | mass density (340 K, 7014.4 kPa, x2 = 0.5): 497.66 ± 0.39 kg/m3 | mass density (340 K, x2 = 0.25): 499.52 ± 0.29 kg/m3 | mass density (340 K, x2 = 0.5): 475.99 ± 0.28 kg/m3 | mass density (340 K, x2 = 0.75): 447.59 ± 0.28 kg/m3 | mass density (360 K, 1968.3 kPa, x2 = 0.25): 468.3 ± 0.3 kg/m3 | mass density (360 K, 2483.2 kPa, x2 = 0.25): 471.24 ± 0.31 kg/m3 | mass density (360 K, 2528 kPa, x2 = 0.5): 441.58 ± 0.31 kg/m3 | mass density (360 K, 2981.1 kPa, x2 = 0.75): 400.91 ± 0.3 kg/m3 | mass density (360 K, 3014.4 kPa, x2 = 0.5): 445.35 ± 0.32 kg/m3 | mass density (360 K, 3030.5 kPa, x2 = 0.25): 474.17 ± 0.32 kg/m3 | mass density (360 K, 3479.5 kPa, x2 = 0.25): 476.45 ± 0.33 kg/m3 | mass density (360 K, 3504.1 kPa, x2 = 0.75): 407.74 ± 0.3 kg/m3 | mass density (360 K, 3530.7 kPa, x2 = 0.5): 449 ± 0.32 kg/m3 | mass density (360 K, 4004.6 kPa, x2 = 0.25): 478.98 ± 0.33 kg/m3 | mass density (360 K, 4023.8 kPa, x2 = 0.5): 452.26 ± 0.33 kg/m3 | mass density (360 K, 4034.2 kPa, x2 = 0.75): 413.59 ± 0.31 kg/m3 | mass density (360 K, 4494.7 kPa, x2 = 0.25): 481.23 ± 0.34 kg/m3 | mass density (360 K, 4499.5 kPa, x2 = 0.75): 418.08 ± 0.32 kg/m3 | mass density (360 K, 4529.2 kPa, x2 = 0.5): 455.37 ± 0.34 kg/m3 | mass density (360 K, 4959.4 kPa, x2 = 0.75): 422.1 ± 0.32 kg/m3 | mass density (360 K, 5018.1 kPa, x2 = 0.25): 483.52 ± 0.35 kg/m3 | mass density (360 K, 5025.4 kPa, x2 = 0.5): 458.22 ± 0.34 kg/m3 | mass density (360 K, 5477.4 kPa, x2 = 0.75): 426.13 ± 0.33 kg/m3 | mass density (360 K, 5492.3 kPa, x2 = 0.25): 485.53 ± 0.36 kg/m3 | mass density (360 K, 5525 kPa, x2 = 0.5): 460.95 ± 0.35 kg/m3 | mass density (360 K, 5965.8 kPa, x2 = 0.75): 429.75 ± 0.34 kg/m3 | mass density (360 K, 5999.9 kPa, x2 = 0.25): 487.58 ± 0.37 kg/m3 | mass density (360 K, 6017.8 kPa, x2 = 0.5): 463.52 ± 0.36 kg/m3 | mass density (360 K, 6472.2 kPa, x2 = 0.25): 489.44 ± 0.37 kg/m3 | mass density (360 K, 6494 kPa, x2 = 0.75): 433.3 ± 0.35 kg/m3 | mass density (360 K, 6530.6 kPa, x2 = 0.5): 466.12 ± 0.37 kg/m3 | mass density (360 K, 6960.2 kPa, x2 = 0.75): 436.27 ± 0.35 kg/m3 | mass density (360 K, 6966.9 kPa, x2 = 0.25): 491.3 ± 0.38 kg/m3 | mass density (360 K, 6972.7 kPa, x2 = 0.5): 468.36 ± 0.37 kg/m3 | mass density (360 K, x2 = 0.25): 466.36 ± 0.28 kg/m3 | mass density (360 K, x2 = 0.75): 398.44 ± 0.26 kg/m3 | mass density (380 K, 2507.8 kPa, x2 = 0.25): 426.44 ± 0.3 kg/m3 | mass density (380 K, 3006.4 kPa, x2 = 0.25): 431.76 ± 0.31 kg/m3 | mass density (380 K, 3508.7 kPa, x2 = 0.25): 436.48 ± 0.31 kg/m3 | mass density (380 K, 3523.1 kPa, x2 = 0.5): 395.46 ± 0.31 kg/m3 | mass density (380 K, 3998.7 kPa, x2 = 0.25): 440.67 ± 0.32 kg/m3 | mass density (380 K, 4001.1 kPa, x2 = 0.5): 402.87 ± 0.32 kg/m3 | mass density (380 K, 4476.5 kPa, x2 = 0.5): 409.03 ± 0.33 kg/m3 | mass density (380 K, 4501.1 kPa, x2 = 0.25): 444.52 ± 0.33 kg/m3 | mass density (380 K, 4538.7 kPa, x2 = 0.75): 349.07 ± 0.3 kg/m3 | mass density (380 K, 4998.7 kPa, x2 = 0.25): 448.08 ± 0.34 kg/m3 | mass density (380 K, 5019 kPa, x2 = 0.5): 415.08 ± 0.33 kg/m3 | mass density (380 K, 5025.3 kPa, x2 = 0.75): 362.3 ± 0.31 kg/m3 | mass density (380 K, 5491.2 kPa, x2 = 0.75): 371.58 ± 0.31 kg/m3 | mass density (380 K, 5494.5 kPa, x2 = 0.5): 419.73 ± 0.34 kg/m3 | mass density (380 K, 5497.5 kPa, x2 = 0.25): 451.38 ± 0.34 kg/m3 | mass density (380 K, 5962.5 kPa, x2 = 0.5): 423.89 ± 0.34 kg/m3 | mass density (380 K, 5986.2 kPa, x2 = 0.75): 379.48 ± 0.32 kg/m3 | mass density (380 K, 5995.5 kPa, x2 = 0.25): 454.49 ± 0.35 kg/m3 | mass density (380 K, 6480.6 kPa, x2 = 0.5): 428.09 ± 0.35 kg/m3 | mass density (380 K, 6502.4 kPa, x2 = 0.25): 457.46 ± 0.36 kg/m3 | mass density (380 K, 6503.9 kPa, x2 = 0.75): 386.32 ± 0.33 kg/m3 | mass density (380 K, 6897.6 kPa, x2 = 0.75): 390.75 ± 0.33 kg/m3 | mass density (380 K, 6908.8 kPa, x2 = 0.5): 431.3 ± 0.36 kg/m3 | mass density (380 K, 6952.8 kPa, x2 = 0.25): 459.99 ± 0.37 kg/m3 | mass density (380 K, x2 = 0.25): 424.79 ± 0.27 kg/m3 | mass density (380 K, x2 = 0.5): 387.07 ± 0.27 kg/m3
